Laboratory results as given in article PMC11411520 (ACS Omega, 2024).
“Also recorded” adds a separate entry of the source. No end group written: not given here. *: point of attachment. Biotin = O=C1N[C@H]2[C@H](CS[C@H]2CCCCC(=O)*)N1

System: insulin
Test: electrochemical impedance spectroscopy
Format: binding
Conditions: two experimental cases and one scrambled sequence; different insulin concentrations; PBS

EACVESGGGENLYFQK(Biotin) [scrambled sequence]
raw phase change (Zphz) across different frequencies: The largest change across different frequencies is observed in the scrambled sequence negative control compared to the other two experimental cases; also recorded: The largest change across different frequencies was observed in (C)
